# Where a name gives a salt, the structure may show the parent alone.
# Test system: β-lactamase producing bacteria
# Experiment: Test Example 1: MIC of meropenem (MEPM) combined with test compound at fixed 4 μg/mL, broth microdilution
# Assay type: cell-based
# Conditions: relative to MEPM alone
# Description: Test Example 1: Evaluation of Minimum Inhibitory Concentration (MIC) of MEPM Against β-Lactamase Producing Bacteria
# To evaluate the β-lactamase inhibitory activity of test compounds, the effect of combination of a test compound and a β-lactam agent against β-lactamase producing bacteria was evaluated. Meropenem (MEPM) was used as a β-lactam antimicrobial agent. The minimum inhibitory concentration (MIC) of MEPM against β-lactamase producing bacteria when a test compound was added at a fixed concentration (4 μg/mL) was measured by broth microdilution method (common ratio: 2). MIC of MEPM decreasing to less than 1/32 in combination with a test compound is indicated by A, decreasing from 1/32 to 1/16 is indicated by B, decreasing from ⅛ to ¼ is indicated by C, and decreasing to ½ or others are indicated by D. “-” represents untested cases.
SMILES,"Decrease of MIC of MEPM in combination with a test compound, E. coli ATCC BAA-2340 (KPC)","Decrease of MIC of MEPM in combination with a test compound, K. pneumoniae ATCC BAA-2344 (KPC)","Decrease of MIC of MEPM in combination with a test compound, K. pneumoniae ATCC BAA-2524 (OXA-48)"
"O=C(O)c1c(OC2CN(C(=O)c3ccccc3)C2)ccc2c1O[B-](O)(O)CC2 [Example 11, 8-[(1-benzoylazetidin-3-yl)oxy]-4,4-dihydroxy-5-oxa-4-boranuidabicyclo[4.4.0]deca-l(6),7,9-triene-7-carboxylic acid disodium salt]",A (MIC of MEPM decreasing to less than 1/32 in combination with a test compound is indicated by A),B (decreasing from 1/32 to 1/16 is indicated by B),B (decreasing from 1/32 to 1/16 is indicated by B)
"O=C(O)c1c(OC2CN(C(=O)c3cccnc3)C2)ccc2c1O[B-](O)(O)CC2 [Example 12, 4,4-dihydroxy-8-{[1-(pyridine-3-carbonyl)azetidin-3-yl]oxy}-5-oxa-4-boranuidabicyclo[4.4.0]deca-l(6),7,9-triene-7-carboxylic acid disodium salt]",A (MIC of MEPM decreasing to less than 1/32 in combination with a test compound is indicated by A),A (MIC of MEPM decreasing to less than 1/32 in combination with a test compound is indicated by A),B (decreasing from 1/32 to 1/16 is indicated by B)
"O=C(O)c1c(OC2CN(C(=O)Cc3ccccn3)C2)ccc2c1O[B-](O)(O)CC2 [Example 13, 4,4-dihydroxy-8-({1-[(pyridin-2-yl)acetyl]azetidin-3-yl}oxy)-5-oxa-4-boranuidabicyclo[4.4.0]deca-l(6),7,9-triene-7-carboxylic acid disodium salt]",A (MIC of MEPM decreasing to less than 1/32 in combination with a test compound is indicated by A),A (MIC of MEPM decreasing to less than 1/32 in combination with a test compound is indicated by A),B (decreasing from 1/32 to 1/16 is indicated by B)
"O=C(O)c1c(OC2CN(C(=O)Cc3cccnc3)C2)ccc2c1O[B-](O)(O)CC2 [Example 14, 4,4-dihydroxy-8-({1-[(pyridin-3-yl)acetyl]azetidin-3-yl}oxy)-5-oxa-4-boranuidabicyclo[4.4.0]deca-l(6),7,9-triene-7-carboxylic acid disodium salt]",A (MIC of MEPM decreasing to less than 1/32 in combination with a test compound is indicated by A),A (MIC of MEPM decreasing to less than 1/32 in combination with a test compound is indicated by A),B (decreasing from 1/32 to 1/16 is indicated by B)
"N[C@H](C(=O)N1CC(Oc2ccc3c(c2C(=O)O)O[B-](O)(O)CC3)C1)c1ccccc1 [Example 15, 8-({1-[(2S)-2-amino-2-phenylacetyl]azetidin-3-yl}oxy)-4,4-dihydroxy-5-oxa-4-boranuidabicyclo[4.4.0]deca-l(6),7,9-triene-7-carboxylic acid disodium salt]",A (MIC of MEPM decreasing to less than 1/32 in combination with a test compound is indicated by A),A (MIC of MEPM decreasing to less than 1/32 in combination with a test compound is indicated by A),B (decreasing from 1/32 to 1/16 is indicated by B)
"O=C(O)c1c(OC2CN(C(=O)Cc3ccncc3)C2)ccc2c1O[B-](O)(O)CC2 [Example 16, 4,4-dihydroxy-8-({1-[(pyridin-4-yl)acetyl]azetidin-3-yl}oxy)-5-oxa-4-boranuidabicyclo[4.4.0]deca-l(6),7,9-triene-7-carboxylic acid disodium salt]",A (MIC of MEPM decreasing to less than 1/32 in combination with a test compound is indicated by A),,B (decreasing from 1/32 to 1/16 is indicated by B)
"O=C(O)c1c(OC2CN(C(=O)Cc3ccc(O)cc3)C2)ccc2c1O[B-](O)(O)CC2 [Example 17, 4,4-dihydroxy-8-({1-[(4-hydroxyphenyl)acetyl]azetidin-3-yl}oxy)-5-oxa-4-boranuidabicyclo[4.4.0]deca-l(6),7,9-triene-7-carboxylic acid disodium salt]",A (MIC of MEPM decreasing to less than 1/32 in combination with a test compound is indicated by A),B (decreasing from 1/32 to 1/16 is indicated by B),B (decreasing from 1/32 to 1/16 is indicated by B)
"O=C(O)c1c(OC2CN(C(=O)Cn3cncn3)C2)ccc2c1O[B-](O)(O)CC2 [Example 18, 4,4-dihydroxy-8-({1-[(1H-1,2,4-triazol-1-yl)acetyl]azetidin-3-yl}oxy)-5-oxa-4-boranuidabicyclo[4.4.0]deca-l(6),7,9-triene-7-carboxylic acid disodium salt]",A (MIC of MEPM decreasing to less than 1/32 in combination with a test compound is indicated by A),A (MIC of MEPM decreasing to less than 1/32 in combination with a test compound is indicated by A),B (decreasing from 1/32 to 1/16 is indicated by B)
"NC(C(=O)N1CC(Oc2ccc3c(c2C(=O)O)O[B-](O)(O)CC3)C1)c1cnc[nH]1 (stereo not shown) [Example 19, 8-({1-[amino(1H-imidazol-5-yl)acetyl]azetidin-3-yl}oxy)-4,4-dihydroxy-5-oxa-4-boranuidabicyclo[4.4.0]deca-l(6),7,9-triene-7-carboxylic acid disodium salt]",A (MIC of MEPM decreasing to less than 1/32 in combination with a test compound is indicated by A),A (MIC of MEPM decreasing to less than 1/32 in combination with a test compound is indicated by A),B (decreasing from 1/32 to 1/16 is indicated by B)
"O=C(O)c1c(OC2CN(C(=O)Cc3ccccc3)C2)ccc2c1O[B-](O)(O)CC2 [Example 20, 4,4-dihydroxy-8-{[1-(phenylacetyl)azetidin-3-yl]oxy}-5-oxa-4-boranuidabicyclo[4.4.0]deca-l(6),7,9-triene-7-carboxylic acid disodium salt]",A (MIC of MEPM decreasing to less than 1/32 in combination with a test compound is indicated by A),B (decreasing from 1/32 to 1/16 is indicated by B),B (decreasing from 1/32 to 1/16 is indicated by B)
"O=C(O)c1c(OC2CN(C(=O)CCc3ccccc3)C2)ccc2c1O[B-](O)(O)CC2 [Example 21, 4,4-dihydroxy-8-{[1-(3-phenylpropanoyl)azetidin-3-yl]oxy}-5-oxa-4-boranuidabicyclo[4.4.0]deca-l(6),7,9-triene-7-carboxylic acid disodium salt]",A (MIC of MEPM decreasing to less than 1/32 in combination with a test compound is indicated by A),B (decreasing from 1/32 to 1/16 is indicated by B),C (decreasing from ⅛ to ¼ is indicated by C)
"O=C(O)c1c(OC2CN(C(=O)Cn3ccnc3)C2)ccc2c1O[B-](O)(O)CC2 [Example 22, 4,4-dihydroxy-8-({1-[(1H-imidazol-1-yl)acetyl]azetidin-3-yl}oxy)-5-oxa-4-boranuidabicyclo[4.4.0]deca-l(6),7,9-triene-7-carboxylic acid disodium salt]",A (MIC of MEPM decreasing to less than 1/32 in combination with a test compound is indicated by A),A (MIC of MEPM decreasing to less than 1/32 in combination with a test compound is indicated by A),B (decreasing from 1/32 to 1/16 is indicated by B)
"O=C(O)c1c(OC2CN(C(=O)Cn3cnnn3)C2)ccc2c1O[B-](O)(O)CC2 [Example 23, 4,4-dihydroxy-8-({1-[(1H-tetrazol-1-yl)acetyl]azetidin-3-yl}oxy)-5-oxa-4-boranuidabicyclo[4.4.0]deca-l(6),7,9-triene-7-carboxylic acid disodium salt]",,A (MIC of MEPM decreasing to less than 1/32 in combination with a test compound is indicated by A),B (decreasing from 1/32 to 1/16 is indicated by B)
"O=C(O)c1c(OC2CN(C(=O)Cc3nn[nH]n3)C2)ccc2c1O[B-](O)(O)CC2 [Example 24, 4,4-dihydroxy-8-({1-[(2H-tetrazol-5-yl)acetyl]azetidin-3-yl}oxy)-5-oxa-4-boranuidabicyclo[4.4.0]deca-l(6),7,9-triene-7-carboxylic acid disodium salt]",A (MIC of MEPM decreasing to less than 1/32 in combination with a test compound is indicated by A),A (MIC of MEPM decreasing to less than 1/32 in combination with a test compound is indicated by A),B (decreasing from 1/32 to 1/16 is indicated by B)

# — US11066425B1, “Oxo-substituted compound” (SUMITOMO DAINIPPON PHARMA CO., LTD., priority 2018, dated 2021)
